# Data from PubChem BioAssay (NCI).
#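 Test compounds were applied to cells in 96-well plates for 48 hours at 5 doses. TGI is the concentration that stops growth completely.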
# How the values were obtained:
# Experiment in all cases: NCI-60 cell line screen, 48 h
# HCT-116 colon = system: HCT-116 colon
# SN12C renal = system: SN12C renal
# NCI-H460 lung = system: NCI-H460 lung
# HCC-2998 colon = system: HCC-2998 colon
# HL-60(TB) leukemia = system: HL-60(TB) leukemia
# RXF 393 renal = system: RXF 393 renal
# CAKI-1 renal = system: CAKI-1 renal
# MDA-MB-435 = system: MDA-MB-435
# NCI-H23 lung = system: NCI-H23 lung
# MDA-N = system: MDA-N
# HOP-62 NSCLC = system: HOP-62 NSCLC
# SK-MEL-2 melanoma = system: SK-MEL-2 melanoma
# SK-MEL-28 melanoma = system: SK-MEL-28 melanoma
# RPMI-8226 leukemia = system: RPMI-8226 leukemia
# SK-OV-3 ovarian = system: SK-OV-3 ovarian
# CCRF-CEM leukemia = system: CCRF-CEM leukemia
# UACC-62 melanoma = system: UACC-62 melanoma
# LOX IMVI melanoma = system: LOX IMVI melanoma
# SNB-75 CNS = system: SNB-75 CNS
# HS 578T breast = system: HS 578T breast
# NCI/ADR-RES ovarian = system: NCI/ADR-RES ovarian
# SR leukemia = system: SR leukemia
# HOP-92 NSCLC = system: HOP-92 NSCLC
# SF-295 CNS = system: SF-295 CNS
# PC-3 prostate = system: PC-3 prostate
# HCT-15 colon = system: HCT-15 colon
# 786-0 renal = system: 786-0 renal
# DU-145 prostate = system: DU-145 prostate
# UACC-257 melanoma = system: UACC-257 melanoma
# TK-10 renal = system: TK-10 renal
# EKVX NSCLC = system: EKVX NSCLC
# OVCAR-8 ovarian = system: OVCAR-8 ovarian
# MOLT-4 leukemia = system: MOLT-4 leukemia
# A498 renal = system: A498 renal
# OVCAR-5 ovarian = system: OVCAR-5 ovarian
# SK-MEL-5 melanoma = system: SK-MEL-5 melanoma
# OVCAR-3 ovarian = system: OVCAR-3 ovarian
# MDA-MB-231 breast = system: MDA-MB-231 breast
# NCI-H522 lung = system: NCI-H522 lung
# SW-620 colon = system: SW-620 colon
# ACHN renal = system: ACHN renal
# BT-549 breast = system: BT-549 breast
# COLO 205 colon = system: COLO 205 colon
# NCI-H226 lung = system: NCI-H226 lung
# OVCAR-4 ovarian = system: OVCAR-4 ovarian
# SF-539 CNS = system: SF-539 CNS
# M14 melanoma = system: M14 melanoma
# KM12 colon = system: KM12 colon
# SNB-19 CNS = system: SNB-19 CNS
# UO-31 renal = system: UO-31 renal
# MCF7 breast = system: MCF7 breast
# A549 NSCLC = system: A549 NSCLC
# HT29 colon = system: HT29 colon
# SF-268 CNS = system: SF-268 CNS
# T-47D breast = system: T-47D breast
# IGROV1 ovarian = system: IGROV1 ovarian
# U251 CNS = system: U251 CNS
# K-562 leukemia = system: K-562 leukemia
# MALME-3M melanoma = system: MALME-3M melanoma
smiles,measurement,setting,value
Oc1ccc(C=Nc2ccccc2O)cc1,TGI,HCT-116 colon,> 100 µM
same,TGI,SN12C renal,> 100 µM
same,TGI,NCI-H460 lung,> 100 µM
same,TGI,HCC-2998 colon,> 100 µM
same,TGI,HL-60(TB) leukemia,42.1 µM
same,TGI,RXF 393 renal,> 100 µM
same,TGI,CAKI-1 renal,> 100 µM
same,TGI,MDA-MB-435,33 µM
same,TGI,NCI-H23 lung,> 100 µM
same,TGI,MDA-N,33.8 µM
same,TGI,HOP-62 NSCLC,> 100 µM
same,TGI,SK-MEL-2 melanoma,57.3 µM
same,TGI,SK-MEL-28 melanoma,> 100 µM
same,TGI,RPMI-8226 leukemia,> 100 µM
same,TGI,SK-OV-3 ovarian,> 100 µM
same,TGI,CCRF-CEM leukemia,> 100 µM
same,TGI,UACC-62 melanoma,> 100 µM
same,TGI,LOX IMVI melanoma,> 100 µM
same,TGI,SNB-75 CNS,> 100 µM
same,TGI,HS 578T breast,> 100 µM
same,TGI,NCI/ADR-RES ovarian,> 100 µM
same,TGI,SR leukemia,> 100 µM
same,TGI,HOP-92 NSCLC,> 100 µM
same,TGI,SF-295 CNS,> 100 µM
same,TGI,PC-3 prostate,> 100 µM
same,TGI,HCT-15 colon,> 100 µM
same,TGI,786-0 renal,67.4 µM
same,TGI,DU-145 prostate,31.6 µM
same,TGI,UACC-257 melanoma,65.3 µM
same,TGI,TK-10 renal,> 100 µM
same,TGI,EKVX NSCLC,> 100 µM
same,TGI,OVCAR-8 ovarian,> 100 µM
same,TGI,MOLT-4 leukemia,> 100 µM
same,TGI,A498 renal,> 100 µM
same,TGI,OVCAR-5 ovarian,> 100 µM
same,TGI,SK-MEL-5 melanoma,62.7 µM
same,TGI,OVCAR-3 ovarian,> 100 µM
same,TGI,MDA-MB-231 breast,> 100 µM
same,TGI,NCI-H522 lung,> 100 µM
same,TGI,SW-620 colon,> 100 µM
same,TGI,ACHN renal,> 100 µM
same,TGI,BT-549 breast,> 100 µM
same,TGI,COLO 205 colon,91.7 µM
same,TGI,NCI-H226 lung,> 100 µM
same,TGI,OVCAR-4 ovarian,> 100 µM
same,TGI,SF-539 CNS,> 100 µM
same,TGI,M14 melanoma,> 100 µM
same,TGI,KM12 colon,> 100 µM
same,TGI,SNB-19 CNS,> 100 µM
same,TGI,UO-31 renal,> 100 µM
same,TGI,MCF7 breast,90.8 µM
same,TGI,A549 NSCLC,> 100 µM
same,TGI,HT29 colon,> 100 µM
same,TGI,SF-268 CNS,> 100 µM
same,TGI,T-47D breast,> 100 µM
same,TGI,IGROV1 ovarian,> 100 µM
same,TGI,U251 CNS,> 100 µM
same,TGI,K-562 leukemia,> 100 µM
O=C(Nc1ccccc1)c1cc(S(=O)(=O)Nc2n[nH]c(=O)n2-c2ccccc2)c(S)cc1Cl,TGI,HCT-116 colon,> 100 µM
same,TGI,SN12C renal,> 100 µM
same,TGI,NCI-H460 lung,> 100 µM
same,TGI,HCC-2998 colon,> 100 µM
same,TGI,HL-60(TB) leukemia,> 100 µM
same,TGI,RXF 393 renal,> 100 µM
same,TGI,CAKI-1 renal,> 100 µM
same,TGI,MDA-MB-435,> 100 µM
same,TGI,MDA-N,> 100 µM
same,TGI,SK-MEL-2 melanoma,> 100 µM
same,TGI,SK-MEL-28 melanoma,> 100 µM
same,TGI,RPMI-8226 leukemia,> 100 µM
same,TGI,SK-OV-3 ovarian,> 100 µM
same,TGI,UACC-62 melanoma,> 100 µM
same,TGI,LOX IMVI melanoma,> 100 µM
same,TGI,SNB-75 CNS,> 100 µM
same,TGI,HS 578T breast,> 100 µM
same,TGI,NCI/ADR-RES ovarian,> 100 µM
same,TGI,SR leukemia,> 100 µM
same,TGI,HOP-92 NSCLC,> 100 µM
same,TGI,PC-3 prostate,> 100 µM
same,TGI,HCT-15 colon,> 100 µM
same,TGI,786-0 renal,> 100 µM
same,TGI,DU-145 prostate,> 100 µM
same,TGI,UACC-257 melanoma,> 100 µM
same,TGI,TK-10 renal,> 100 µM
same,TGI,EKVX NSCLC,> 100 µM
same,TGI,OVCAR-8 ovarian,> 100 µM
same,TGI,MOLT-4 leukemia,> 100 µM
same,TGI,A498 renal,> 100 µM
same,TGI,OVCAR-5 ovarian,> 100 µM
same,TGI,SK-MEL-5 melanoma,> 100 µM
same,TGI,OVCAR-3 ovarian,> 100 µM
same,TGI,MDA-MB-231 breast,> 100 µM
same,TGI,NCI-H522 lung,> 100 µM
same,TGI,SW-620 colon,> 100 µM
same,TGI,BT-549 breast,> 100 µM
same,TGI,COLO 205 colon,> 100 µM
same,TGI,NCI-H226 lung,> 100 µM
same,TGI,OVCAR-4 ovarian,> 100 µM
same,TGI,SF-539 CNS,> 100 µM
same,TGI,M14 melanoma,> 100 µM
same,TGI,KM12 colon,> 100 µM
same,TGI,SNB-19 CNS,> 100 µM
same,TGI,UO-31 renal,> 100 µM
same,TGI,MCF7 breast,> 100 µM
same,TGI,MALME-3M melanoma,> 100 µM
same,TGI,A549 NSCLC,> 100 µM
same,TGI,HT29 colon,> 100 µM
same,TGI,SF-268 CNS,> 100 µM
same,TGI,T-47D breast,> 100 µM
same,TGI,IGROV1 ovarian,> 100 µM
same,TGI,U251 CNS,> 100 µM
same,TGI,K-562 leukemia,> 100 µM
